Values joined by “and” are separate entries in the source; they are usually repeats but may differ in a detail not shown here. Identical values can stand only once. Like-named read-outs stand apart in the source and are kept apart here.
Tests used:
[1] = target: T1, human recombinant AT2 receptor (Homo sapiens, UniProt P50052); experiment: Binding to AT2 receptor, radiometric scintillation assay (Eurofins ITEM26); conditions: for Ki: seven-point dose-response curve
T1 construct: purchased Eurofins ITEM26 (protocol number)
T1 sequence (P50052 1-363): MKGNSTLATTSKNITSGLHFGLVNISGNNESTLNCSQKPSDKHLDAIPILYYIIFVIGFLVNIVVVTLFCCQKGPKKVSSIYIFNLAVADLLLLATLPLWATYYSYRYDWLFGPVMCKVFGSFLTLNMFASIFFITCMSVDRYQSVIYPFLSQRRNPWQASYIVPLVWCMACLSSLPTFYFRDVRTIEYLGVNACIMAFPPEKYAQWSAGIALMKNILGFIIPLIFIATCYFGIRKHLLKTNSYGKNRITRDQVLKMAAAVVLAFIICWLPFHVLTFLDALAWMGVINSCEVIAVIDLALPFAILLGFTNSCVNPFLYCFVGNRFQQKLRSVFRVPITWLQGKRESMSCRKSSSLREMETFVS

[2] = Metabolic stability in pooled human liver microsomes; format: in vitro ADME; conditions: pooled human liver microsomes 0.5 mg/mL, 1 μM test compound, 37° C., * rows = mean of two runs; for half-life at 1 μM: human, pooled human liver microsomes
Outline: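 Pooled human liver microsomes (0.5 mg/mL in PBS) preincubated ±1 mM NADPH at 37° C; test compound added at 10 min to 1 μM final. Samples at 0, 5, 15 and 60 min quenched in acetonitrile, parent quantified by LC-MS/MS against a standard curve (terfenadine internal standard). Initial metabolic rate calculated with and without NADPH.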

[3] = target: T2, human recombinant AT1 receptor (Homo sapiens, UniProt P30556); experiment: Binding to AT1 receptor, radiometric scintillation assay (Eurofins ITEM24); conditions: test compounds at 1 and 10 μM, ligand 125I(sar1,Ile8)-AT-II; * rows = mean of runs
T2 construct: purchased Eurofins ITEM24 (protocol number)
T2 sequence (P30556 1-359): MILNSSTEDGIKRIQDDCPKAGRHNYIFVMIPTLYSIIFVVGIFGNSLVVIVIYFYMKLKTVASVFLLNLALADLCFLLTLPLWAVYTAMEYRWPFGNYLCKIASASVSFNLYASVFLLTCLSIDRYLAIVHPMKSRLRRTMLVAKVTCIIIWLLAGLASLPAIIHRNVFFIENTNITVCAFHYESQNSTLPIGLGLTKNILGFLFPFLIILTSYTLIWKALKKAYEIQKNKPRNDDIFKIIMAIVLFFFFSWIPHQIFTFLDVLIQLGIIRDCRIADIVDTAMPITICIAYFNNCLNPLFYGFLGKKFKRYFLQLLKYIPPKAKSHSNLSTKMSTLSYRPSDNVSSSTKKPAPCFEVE

CYP2B6 = target: T3, CYP2B6 (Homo sapiens, UniProt P20813); experiment: CYP inhibition in human liver microsomes (Eurofins ITEMG232); format: in vitro ADME; conditions: probe bupropion, substrate bupropion, read-out: CYP2B6 Inh %
T3 construct: isoform-specific substrates incubated with human liver microsomes; tissue Eurofins ITEMG232 (protocol number); host or cells: human liver microsomes
T3 sequence (P20813 1-491): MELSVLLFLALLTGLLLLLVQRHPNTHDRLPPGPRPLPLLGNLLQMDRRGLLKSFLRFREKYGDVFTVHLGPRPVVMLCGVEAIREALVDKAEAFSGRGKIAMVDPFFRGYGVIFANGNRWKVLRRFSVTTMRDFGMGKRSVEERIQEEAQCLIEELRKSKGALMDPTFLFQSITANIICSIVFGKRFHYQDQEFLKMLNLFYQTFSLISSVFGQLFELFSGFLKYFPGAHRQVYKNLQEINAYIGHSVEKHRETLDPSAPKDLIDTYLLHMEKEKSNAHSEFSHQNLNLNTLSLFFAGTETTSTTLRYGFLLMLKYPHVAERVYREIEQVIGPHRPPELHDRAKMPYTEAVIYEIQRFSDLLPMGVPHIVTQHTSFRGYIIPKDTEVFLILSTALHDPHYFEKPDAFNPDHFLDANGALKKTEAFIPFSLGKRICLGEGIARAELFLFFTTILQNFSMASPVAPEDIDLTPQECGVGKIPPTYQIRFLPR

CYP2C19 = target: T4, CYP2C19 (Homo sapiens, UniProt P33261); experiment: as above; format: in vitro ADME; conditions: human, probe omeprazole, substrate omeprazole, read-out: CYP2C19 Inh %
T4 construct: isoform-specific substrates incubated with human liver microsomes; tissue Eurofins ITEMG232 (protocol number); host or cells: human liver microsomes
T4 sequence (P33261 whole entry, canonical isoform): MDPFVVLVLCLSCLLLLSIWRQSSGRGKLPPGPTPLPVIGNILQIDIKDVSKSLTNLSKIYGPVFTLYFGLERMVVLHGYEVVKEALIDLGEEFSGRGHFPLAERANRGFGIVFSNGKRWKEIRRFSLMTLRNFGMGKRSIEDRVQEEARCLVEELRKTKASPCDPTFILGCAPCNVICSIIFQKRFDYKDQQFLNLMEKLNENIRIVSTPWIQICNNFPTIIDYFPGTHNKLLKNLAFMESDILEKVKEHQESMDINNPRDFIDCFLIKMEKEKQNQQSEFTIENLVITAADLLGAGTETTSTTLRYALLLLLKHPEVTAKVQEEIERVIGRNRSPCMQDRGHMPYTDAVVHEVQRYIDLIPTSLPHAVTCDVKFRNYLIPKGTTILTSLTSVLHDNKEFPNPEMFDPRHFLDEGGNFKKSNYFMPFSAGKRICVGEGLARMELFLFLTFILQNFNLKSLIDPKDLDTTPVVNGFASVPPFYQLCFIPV

CYP3A4&5 = experiment: in vitro; conditions: human, human liver microsomes, probe testosterone;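 also: Read-out is the metabolite generated from the probe substrate, quantified as HPLC-MS/MS peak area once incubation ends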
CYP1A2 = target: T5, CYP1A2 (Homo sapiens, UniProt P05177); experiment: in vitro; format: in vitro ADME; conditions: human, microsomes, human liver microsomes, substrate phenacetin, read-out: CYP1A2 Inh %
T5 construct: isoform-specific substrates incubated with human liver microsomes; tissue Eurofins ITEMG232 (protocol number); host or cells: human liver microsomes
T5 sequence (P05177 whole entry, canonical isoform): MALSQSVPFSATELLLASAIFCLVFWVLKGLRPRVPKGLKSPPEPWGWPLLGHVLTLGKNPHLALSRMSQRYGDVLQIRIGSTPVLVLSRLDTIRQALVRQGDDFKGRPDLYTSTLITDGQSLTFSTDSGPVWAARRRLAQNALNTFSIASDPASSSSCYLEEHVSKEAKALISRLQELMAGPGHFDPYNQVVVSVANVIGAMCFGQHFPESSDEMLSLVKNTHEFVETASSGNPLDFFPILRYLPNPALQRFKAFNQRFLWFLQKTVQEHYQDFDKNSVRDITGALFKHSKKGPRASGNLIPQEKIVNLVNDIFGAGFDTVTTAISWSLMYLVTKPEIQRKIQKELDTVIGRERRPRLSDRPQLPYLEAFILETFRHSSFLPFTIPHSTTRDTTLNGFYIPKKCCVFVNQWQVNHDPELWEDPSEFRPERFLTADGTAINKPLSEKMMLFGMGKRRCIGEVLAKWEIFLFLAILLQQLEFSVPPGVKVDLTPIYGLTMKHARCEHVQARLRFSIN
Procedure: The following substrates were used; CYP1A phenacetin, CYP2B36 bupropion, CYP2C8 paclitaxel and amodiaquine, CYP2C9 diclofenac, CYP2C19 omeprazole, CYP2D6 dextromethorphan, CYP3A midazolam and testosterone.
At the end of the incubation, the formation of metabolite was monitored by HPLC-MS/MS as the peak area response.

CYP3A4 = CYP3A4 (Homo sapiens, UniProt P08684); experiment: CYP inhibition in human liver microsomes (Eurofins ITEMG232), midazolam substrate; format: in vitro ADME; design: isoform-specific substrates incubated with human liver microsomes; tissue Eurofins ITEMG232 (protocol number); host or cells: human liver microsomes; conditions: human, probe midazolam, read-out: CYP3A4 midazolam Inh %
CYP3A4, sequence (P08684 whole entry, canonical isoform): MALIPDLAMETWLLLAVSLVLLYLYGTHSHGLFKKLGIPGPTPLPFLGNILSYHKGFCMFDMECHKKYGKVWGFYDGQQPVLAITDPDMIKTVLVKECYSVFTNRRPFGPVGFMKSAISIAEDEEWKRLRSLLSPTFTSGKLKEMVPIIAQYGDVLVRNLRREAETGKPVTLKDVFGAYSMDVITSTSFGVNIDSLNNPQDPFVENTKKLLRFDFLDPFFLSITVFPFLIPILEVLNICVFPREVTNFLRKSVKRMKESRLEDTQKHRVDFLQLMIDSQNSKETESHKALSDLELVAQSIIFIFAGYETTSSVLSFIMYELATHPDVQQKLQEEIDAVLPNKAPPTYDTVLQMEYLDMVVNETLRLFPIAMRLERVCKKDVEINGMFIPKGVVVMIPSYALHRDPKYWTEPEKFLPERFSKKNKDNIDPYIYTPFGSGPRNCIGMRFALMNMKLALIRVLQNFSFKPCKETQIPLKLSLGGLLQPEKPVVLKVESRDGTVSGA

CYP2C8 = target: T6, CYP2C8 (Homo sapiens, UniProt P10632); experiment: CYP inhibition in human liver microsomes (Eurofins ITEMG232); format: in vitro ADME; conditions: human, probe paclitaxel and amodiaquine, substrate paclitaxel and amodiaquine, read-out: CYP2C8 Inh %
T6 construct: isoform-specific substrates incubated with human liver microsomes; tissue Eurofins ITEMG232 (protocol number); host or cells: human liver microsomes
T6 sequence (P10632 1-490): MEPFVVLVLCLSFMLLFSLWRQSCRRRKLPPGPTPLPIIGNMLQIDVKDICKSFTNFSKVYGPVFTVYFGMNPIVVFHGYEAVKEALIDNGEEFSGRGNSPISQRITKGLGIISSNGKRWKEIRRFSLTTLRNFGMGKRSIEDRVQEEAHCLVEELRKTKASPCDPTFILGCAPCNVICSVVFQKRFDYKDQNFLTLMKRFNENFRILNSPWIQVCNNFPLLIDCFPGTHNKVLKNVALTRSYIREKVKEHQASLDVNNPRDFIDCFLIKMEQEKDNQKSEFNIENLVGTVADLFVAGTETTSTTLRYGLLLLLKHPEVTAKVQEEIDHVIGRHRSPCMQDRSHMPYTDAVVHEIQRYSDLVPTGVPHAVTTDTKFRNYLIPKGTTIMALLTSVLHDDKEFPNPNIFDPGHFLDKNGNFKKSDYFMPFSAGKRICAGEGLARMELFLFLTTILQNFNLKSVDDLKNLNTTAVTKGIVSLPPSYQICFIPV

CYP2D6 = target: T7, CYP2D6 (Homo sapiens, UniProt P10635); experiment: as above; format: in vitro ADME; conditions: probe dextromethorphan, substrate dextromethorphan, read-out: CYP2D6 Inh %
T7 construct: isoform-specific substrates incubated with human liver microsomes; tissue Eurofins ITEMG232 (protocol number); host or cells: human liver microsomes
T7 sequence (P10635 whole entry, canonical isoform): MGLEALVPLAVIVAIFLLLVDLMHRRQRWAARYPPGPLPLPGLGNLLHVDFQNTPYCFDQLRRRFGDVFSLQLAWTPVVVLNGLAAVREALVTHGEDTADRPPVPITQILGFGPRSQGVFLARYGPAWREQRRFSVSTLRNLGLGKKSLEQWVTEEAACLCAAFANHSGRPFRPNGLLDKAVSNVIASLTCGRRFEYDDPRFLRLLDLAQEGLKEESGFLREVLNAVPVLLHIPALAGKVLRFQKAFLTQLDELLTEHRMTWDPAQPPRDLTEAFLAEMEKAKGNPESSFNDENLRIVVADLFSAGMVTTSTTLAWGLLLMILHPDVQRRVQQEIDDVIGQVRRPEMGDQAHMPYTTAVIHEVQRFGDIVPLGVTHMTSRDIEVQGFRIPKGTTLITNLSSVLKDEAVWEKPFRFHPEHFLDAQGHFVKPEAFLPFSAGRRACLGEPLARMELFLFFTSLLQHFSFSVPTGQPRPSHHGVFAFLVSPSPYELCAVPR

CYP2C9 = CYP2C9 (Homo sapiens, UniProt P11712); experiment: as above; format: in vitro ADME; design: isoform-specific substrates incubated with human liver microsomes; tissue Eurofins ITEMG232 (protocol number); host or cells: human liver microsomes; conditions: human, probe diclofenac, substrate diclofenac, read-out: CYP2C9 Inh %
CYP2C9, sequence (P11712 whole entry, canonical isoform): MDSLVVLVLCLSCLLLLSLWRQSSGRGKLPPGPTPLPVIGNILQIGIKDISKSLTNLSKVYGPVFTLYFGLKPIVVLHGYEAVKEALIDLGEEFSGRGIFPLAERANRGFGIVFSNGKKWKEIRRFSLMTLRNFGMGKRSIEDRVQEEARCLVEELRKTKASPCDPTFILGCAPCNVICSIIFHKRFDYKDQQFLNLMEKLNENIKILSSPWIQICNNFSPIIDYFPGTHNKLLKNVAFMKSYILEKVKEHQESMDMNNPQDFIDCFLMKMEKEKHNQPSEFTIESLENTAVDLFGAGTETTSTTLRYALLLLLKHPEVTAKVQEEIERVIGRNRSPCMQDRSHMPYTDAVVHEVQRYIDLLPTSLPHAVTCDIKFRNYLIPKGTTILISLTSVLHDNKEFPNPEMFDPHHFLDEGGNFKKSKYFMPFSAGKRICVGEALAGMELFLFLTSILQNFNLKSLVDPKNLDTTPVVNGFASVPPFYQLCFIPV

[4] = ligand 125I CGP 42112A, * rows = mean of runs
[5] = test compounds at 1, 10, 100 and 1000 nM, ligand 125I CGP 42112A, * rows = mean of runs, read-out: AT2 GraFit IC50
[6] = with 1 mM NADPH, read-out: T1/2, + NaDPH
[7] = without NADPH, read-out: T1/2, no NaDPH

| SMILES | Ki [1, 4] [nM] | IC50 [1, 5] [nM] | half-life at 1 μM [2, 6] [h] | half-life at 1 μM [2, 7] [h] | IC50 [3] | T1/2, + NaDPH ([2]; with 1 mM NADPH) [h] | T1/2, + NaDPH ([2]; with 1 mM NADPH, listed as Example 32*) [h] | inhibition at 10 µM (CYP2B6) [%] | inhibition at 10 µM (CYP2C19) [%] | inhibition at 10 µM (CYP3A4&5) [%] | inhibition at 10 µM (CYP1A2) [%] | inhibition at 10 µM (CYP3A4) [%] | inhibition at 10 µM (CYP2C8) [%] | inhibition at 10 µM (CYP2D6) [%] | inhibition at 10 µM (CYP2C9) [%] | IC50 ([1]; AT2 GraFit IC50, value in parentheses after <0.3, value printed in parentheses behind the bound <0.3) [nM] |
| --- | --- | --- | --- | --- | --- | --- | --- | --- | --- | --- | --- | --- | --- | --- | --- | --- |
| COc1cc(NS(=O)(=O)c2ccc(CC(C)C)cc2-c2ccc(Cn3ccnc3C(C)(C)C)c(F)c2)nc(OC)n1 [Example 35, 4′-((2-(tert-Butyl)-1H-imidazol-1-yl)methyl)-N-(2,6-dimethoxypyrimidin-4-yl)-3′-fluoro-5-isobutyl-[1,1′-biphenyl]-2-sulfonamide] | 59.7 | 119 | 0.133 | > 1 | 30800 nM |  |  |  |  |  |  |  |  |  |  |  |
| CC(C)Cc1ccc(S(=O)(=O)Nc2ccsn2)c(-c2ccc(Cn3ccnc3C(C)(C)C)c(F)c2)c1 [Example 32, 4′-((2-(tert-Butyl)-1H-imidazol-1-yl)methyl)-3′-fluoro-5-isobutyl-N-(isothiazol-3-yl)-[1,1′-biphenyl]-2-sulfonamide] | 0.92 | 1.84 | 0.233 | > 1 | 14100 nM and 8500 nM and 11300 nM | 0.217 | 0.225 |  |  |  |  |  |  |  |  |  |
| CC(C)Cc1ccc(S(=O)(=O)Nc2ncccn2)c(-c2ccc(Cn3ccnc3C(C)C)c(F)c2)c1 [Example 27, 3′-Fluoro-5-isobutyl-4′-((2-isopropyl-1H-imidazol-1-yl)methyl)-N-(pyrimidin-2-yl)-[1,1′-biphenyl]-2-sulfonamide] | 0.31 | 0.61 | > 1 | > 1 |  |  |  | 15.7 | 22.2 | 25.9 | 17.4 | 28.3 | 21.3 | 13.8 | 31.6 |  |
| CC(C)Cc1ccc(S(=O)(=O)Nc2ncc(Cl)cn2)c(-c2ccc(Cn3ccnc3C(C)(C)C)c(F)c2)c1 [Example 10, 4′-((2-(tert-Butyl)-1H-imidazol-1-yl)methyl)-N-(5-chloropyrimidin-2-yl)-3′-fluoro-5-isobutyl-[1,1′-biphenyl]-2-sulfonamide] | 1.5 | 3 | > 1 | > 1 |  |  |  | 58.3 | 55.3 | -17.5 | 37.7 | 32.1 | 93.2 | 31.9 | 87 |  |
| COc1ccc(NS(=O)(=O)c2ccc(CC(C)C)cc2-c2ccc(Cn3ccnc3C(C)(C)C)c(F)c2)nn1 [Example 23, 4′-((2-(tert-Butyl)-1H-imidazol-1-yl)methyl)-3′-fluoro-5-isobutyl-N-(6-methoxypyridazin-3-yl)-[1,1′-biphenyl]-2-sulfonamide] | 0.32 | 0.64 | 0.233 | > 1 |  |  |  | 5.7 | 63.5 | 39.7 | 6.6 | 55.8 | 24.6 | 4.5 | 42.9 |  |

Further lines, results first:

| Ki [1, 4] [nM] | IC50 [1, 5] [nM] | half-life at 1 μM [2, 6] [h] | half-life at 1 μM [2, 7] [h] | IC50 [3] | T1/2, + NaDPH ([2]; with 1 mM NADPH) [h] | T1/2, + NaDPH ([2]; with 1 mM NADPH, listed as Example 32*) [h] | inhibition at 10 µM (CYP2B6) [%] | inhibition at 10 µM (CYP2C19) [%] | inhibition at 10 µM (CYP3A4&5) [%] | inhibition at 10 µM (CYP1A2) [%] | inhibition at 10 µM (CYP3A4) [%] | inhibition at 10 µM (CYP2C8) [%] | inhibition at 10 µM (CYP2D6) [%] | inhibition at 10 µM (CYP2C9) [%] | IC50 ([1]; AT2 GraFit IC50, value in parentheses after <0.3, value printed in parentheses behind the bound <0.3) [nM] | SMILES |
| --- | --- | --- | --- | --- | --- | --- | --- | --- | --- | --- | --- | --- | --- | --- | --- | --- |
| 0.64 | 1.28 | > 1 | > 1 | 13900 nM |  |  |  |  |  |  |  |  |  |  |  | CCc1nccn1Cc1ccc(-c2cc(CC(C)C)sc2S(=O)(=O)Nc2ncccn2)cc1 [Example 51, 3-(4-((2-Ethyl-1H-imidazol-1-yl)methyl)phenyl)-5-isobutyl-N-(pyrimidin-2-yl)thiophene-2-sulfonamide] |
| 0.68 | 1.36 | > 1 | > 1 | 6700 nM |  |  |  |  |  |  |  |  |  |  |  | CC(C)Cc1cc(-c2ccc(Cn3ccnc3C(C)C)cc2)c(S(=O)(=O)Nc2ncccn2)s1 [Example 49, 5-Isobutyl-3-(4-((2-isopropyl-1H-imidazol-1-yl)methyl)phenyl)-N-(pyrimidin-2-yl)thiophene-2-sulfonamide] |
|  | < 0.3 | > 1 | > 1 | 4900 nM |  |  |  |  |  |  |  |  |  |  | 0.25 | CC(C)Cc1cc(-c2ccc(Cn3ccnc3C3CC3)c(F)c2)c(S(=O)(=O)Nc2ncccn2)s1 [Example 47, 3-(4-((2-Cyclopropyl-1H-imidazol-1-yl)methyl)-3-fluorophenyl)-5-isobutyl-N-(pyrimidin-2-yl)thiophene-2-sulfonamide] |
| 0.72 | 1.44 | > 1 | > 1 | 35100 nM |  |  |  |  |  |  |  |  |  |  |  | Cc1nccn1Cc1ccc(-c2cc(CC(C)C)sc2S(=O)(=O)Nc2ncccn2)cc1 [Example 50, 5-Isobutyl-3-(4-((2-methyl-1H-imidazol-1-yl)methyl)phenyl)-N-(pyrimidin-2-yl)thiophene-2-sulfonamide] |
